In patent US8906852B2 (MethylGene Inc., priority 2010, dated 2014):

biological target: T1, VEGFR/KDR (Homo sapiens, UniProt P35968); test: VEGFR/KDR kinase inhibition, DELFIA assay; assay type: biochemical; details: ATP 0.6 uM (2x Km), enzyme 5 nM
T1 construct: made in house; host or cells: Sf9 cells (Spodoptera frugiperda), baculovirus
Summary of the method: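 Enzyme (5 nM) pre-incubated 4 min on ice with inhibitor and Mg-ATP (0.6 uM, 2× Km), then reacted 10-30 min at 30° C on immobilized poly(Glu4,Tyr). EDTA-quenched phosphotyrosine detected with Europium-labeled antibody by time-resolved fluorescence; IC50 from concentration series.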

T1 sequence (P35968 806-1356): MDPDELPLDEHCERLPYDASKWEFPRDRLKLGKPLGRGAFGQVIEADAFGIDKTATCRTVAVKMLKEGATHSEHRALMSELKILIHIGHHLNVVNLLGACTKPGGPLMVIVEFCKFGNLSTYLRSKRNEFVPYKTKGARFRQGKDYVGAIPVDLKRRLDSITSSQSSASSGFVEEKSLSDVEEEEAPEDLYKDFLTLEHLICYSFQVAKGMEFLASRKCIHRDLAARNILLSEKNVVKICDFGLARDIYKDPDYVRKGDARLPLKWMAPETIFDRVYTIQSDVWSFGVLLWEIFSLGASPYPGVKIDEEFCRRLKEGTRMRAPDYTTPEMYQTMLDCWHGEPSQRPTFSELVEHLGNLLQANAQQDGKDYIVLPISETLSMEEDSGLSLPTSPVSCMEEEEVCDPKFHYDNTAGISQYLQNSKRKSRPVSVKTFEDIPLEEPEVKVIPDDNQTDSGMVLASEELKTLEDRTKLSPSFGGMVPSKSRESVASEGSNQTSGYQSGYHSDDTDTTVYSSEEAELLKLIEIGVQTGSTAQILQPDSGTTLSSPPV

Structure (SMILES)	IC50 [µM]
CCOC(=O)CCN1CCN(C(=O)c2ccc(-c3cc4nccc(Oc5ccc(NC(=O)NC6CC6)cc5F)c4s3)nc2)CC1 [Compound 236, ethyl 3-(4-(6-(7-(4-(3-cyclopropylureido)-2-fluorophenoxy)thieno-[3,2-b]pyridin-2-yl)nicotinoyl)piperazin-1-yl)propanoate]	< 0.05
CN(C(=O)OC(C)(C)C)C1CCN(C(=O)c2ccc(-c3cc4nccc(Oc5ccc(NC(=O)NC6CC6)cc5F)c4s3)nc2)CC1 [Compound 397]	< 0.05
O=C(Nc1ccc(Oc2ccnc3cc(-c4ccc(C(=O)N5CCN(CCN6CCOCC6)CC5)cn4)sc23)c(F)c1)NC1CC1 [Compound 231, 1-cyclopropyl-3-(3-fluoro-4-(2-(5-(4-(2-morpholinoethyl)piperazine-1-carbonyl)pyridin-2-yl)thieno[3,2-b]pyridin-7-yloxy)phenyl)urea]	< 0.05
CC(=O)O[C@H]1CCN(C(=O)c2cc3nccc(Oc4ccc(NC(=O)NC5CC5)cc4F)c3s2)C1 [Compound 468, (S)-1-(7-(4-(3-cyclopropylureido)-2-fluorophenoxy)thieno[3,2-b]pyridine-2-carbonyl)pyrrolidin-3-yl acetate]	< 0.05
O=C(Nc1ccccc1)Nc1ccc(Oc2ccnc3cc(C#CCN4CCOCC4)sc23)c(F)c1 [Compound 120, 1-(3-fluoro-4-(2-(3-morpholinoprop-1-ynyl)thieno[3,2-b]pyridin-7-yloxy)phenyl)-3-phenylurea]	0.1 to 0.25
O=C(Nc1ccc(Oc2ccnc3cc(C(=O)N4CCCC4)sc23)c(F)c1)NC1CC1 [Compound 445]	< 0.05
O=C(Nc1ccc(Oc2ccnc3cc(-c4ccc(CN5CCN(CC(F)(F)F)CC5)cn4)sc23)c(F)c1)NC1CC1 [Compound 84, 1-cyclopropyl-3-(3-fluoro-4-(2-(5-((4-(2,2,2-trifluoroethyl)piperazin-1-yl)methyl)-pyridin-2-yl)thieno[3,2-b]pyridin-7-yloxy)phenyl)urea]	< 0.05
O=C(Nc1ccc(Oc2ccnc3cc(-c4ccc(COC5CNC5)cn4)sc23)c(F)c1)NC1CC1 [Compound 405, 1-(4-(2-(5-((Azetidin-3-yloxy)methyl)pyridin-2-yl)thieno[3,2-b]pyridin-7-yloxy)-3-fluorophenyl)-3-cyclopropylurea]	< 0.05
COCCN(Cc1ccc(-c2cc3nccc(Oc4ccc(NC(=O)NC5CC5)c(Cl)c4)c3s2)nc1)C(C)=O [Compound 116, N-((6-(7-(3-chloro-4-(3-cyclopropylureido)phenoxy)thieno[3,2-b]pyridin-2-yl)pyridin-3-yl)methyl)-N-(2-methoxyethyl)acetamide]	< 0.05
O=C(Nc1ccc(Oc2ccnc3cc(-c4cnn(CCN5CCOCC5)c4)sc23)c(F)c1)NC1CC1 [Compound 155, 1-cyclopropyl-3-(3-fluoro-4-(2-(1-(2-morpholinoethyl)-1H-pyrazol-4-yl)thieno[3,2-b]pyridin-7-yloxy)phenyl)urea]	< 0.05
O=C(O)CCNC(=O)N1CCN(Cc2ccc(-c3cc4nccc(Oc5ccc(NC(=O)NC6CC6)cc5F)c4s3)nc2)CC1 [Compound 559]	< 0.05

Other lines, results leading:

IC50 [µM]	Structure (SMILES)
< 0.05	CC(C)(C)OC(=O)N1CCN(Cc2ccc(-c3cc4nccc(Oc5ccc(NC(=O)NC6CC6)cc5F)c4s3)nc2)CC1 [Compound 48, tert-butyl 4-((6-(7-(4-(3-cyclopropylureido)-2-fluorophenoxy)thieno[3,2-b]-pyridin-2-yl)pyridin-3-yl)methyl)piperazine-1-carboxylate]
< 0.05	CN(CCO)C(=O)NC1CCN(Cc2ccc(-c3cc4nccc(Oc5ccc(NC(=O)NC6CC6)cc5F)c4s3)nc2)CC1 [Compound 358, 1-Cyclopropyl-3-(3-fluoro-4-(2-(5-((4-((2-hydroxyethyl-methylamino)carbonylamino)piperidin-1-yl)methyl)pyridin-2-yl)thieno[3,2-b]pyridin-7-yloxy)phenyl)urea]
< 0.05	C[C@H](CN1CCN(Cc2ccc(-c3cc4nccc(Oc5ccc(NC(=O)NC6CC6)cc5F)c4s3)nc2)CC1)C(=O)O [Compound 574]
< 0.05	CC(CC(=O)O)N1CCN(Cc2ccc(-c3cc4nccc(Oc5ccc(NC(=O)NC6CC6)cc5F)c4s3)nc2)CC1 (centres unmarked) [Compound 516]
< 0.05	CN1CCCN(Cc2ccc(-c3cc4nccc(Oc5ccc(NC(=O)NC6CC6)cc5F)c4s3)nc2)CC1 [Compound 54-B, 1-cyclopropyl-3-(3-fluoro-4-(2-(5-((4-methyl-1,4-diazepan-1-yl)methyl)pyridin-2-yl)thieno[3,2-b]pyridin-7-yloxy)phenyl)urea]
< 0.05	C=CC(=O)N1CCN(Cc2ccc(-c3cc4nccc(Oc5ccc(NC(=O)NC6CC6)cc5F)c4s3)nc2)CC1(C)C [Compound 499, 1-(4-(2-(5-((4-acryloyl-3,3-dimethylpiperazin-1-yl)methyl)pyridin-2-yl)thieno[3,2-b]pyridin-7-yloxy)-3-fluorophenyl)-3-cyclopropylurea]
< 0.05	COC(=O)CC(=O)N1CCN(Cc2ccc(-c3cc4nccc(Oc5ccc(NC(=O)NC6CC6)cc5F)c4s3)nc2)CC1 [Compound 506, methyl 3-(4-((6-(7-(4-(3-cyclopropylureido)-2-fluorophenoxy)thieno[3,2-b]pyridin-2-yl)pyridin-3-yl)methyl)piperazin-1-yl)-3-oxopropanoate]
< 0.05	O=C(O)COC1CCN(Cc2ccc(-c3cc4nccc(Oc5ccc(NC(=O)NC6CC6)cc5F)c4s3)nc2)CC1 [Compound 329, 2-(1-((6-(7-(4-(3-cyclopropylureido)-2-fluorophenoxy)thieno[3,2-b]pyridin-2-yl)pyridin-3-yl)mcthyI)piperidin-4-yloxy)acetic acid]
< 0.05	O=C(Nc1ccc(Oc2ccnc3cc(-c4ccc(CN5CC[C@H](F)C5)cn4)sc23)c(F)c1)NC1CC1 [Compound 323, (S)-1-cyclopropyl-3-(3-fluoro-4-(2-(5-((3-fluoropyrrolidin-1-yl)methyl)pyridin-2-yl)thieno[3,2-b]pyridin-7-yloxy)phenyl)urea]
< 0.05	C=CC(=O)N(C)C1CCN(Cc2ccc(-c3cc4nccc(Oc5ccc(NC(=O)NC6CC6)cc5F)c4s3)nc2)CC1 [Compound 412]
< 0.05	CCOC(=O)CCN1CCN(Cc2ccc(-c3cc4nccc(Oc5ccc(NC(=O)NC6CC6)cc5F)c4s3)nc2)CC1 [Compound 68, ethyl 3-(4-((6-(7-(4-(3-cyclopropyl-ureido)-2-fluorophenoxy)-thieno[3,2-b]-pyridin-2-yl)pyridin-3-yl)methyl)piperazin-1-yl)propanoate]
< 0.05	CC(=O)OCC(=O)N(C)C1CCN(Cc2ccc(-c3cc4nccc(Oc5ccc(NC(=O)NC6CC6)cc5F)c4s3)nc2)CC1 [Compound 411]
< 0.05	O=C(Nc1ccc(Oc2ccnc3cc(-c4ccc(CN5CC[C@@H](O)C5)cn4)sc23)c(F)c1)NC1CC1 [Compound 53, (R)-1-cyclopropyl-3-(3-fluoro-4-(2-(5-((3-hydroxypyrrolidin-1-yl)methyl)pyridin-2-yl)thieno[3,2-b]-pyridin-7-yloxy)phenyl)urea]
< 0.05	CN(CCO)C1CCN(Cc2ccc(-c3cc4nccc(Oc5ccc(NC(=O)NC6CC6)cc5F)c4s3)nc2)CC1 [Compound 417]
< 0.05	CCOC(=O)C1CCCN(Cc2ccc(-c3cc4nccc(Oc5ccc(NC(=O)NC6CC6)cc5F)c4s3)nc2)C1 (centres unmarked) [Compound 475, ethyl 1-((6-(7-(4-(3-cyclopropylureido)-2-fluorophenoxy)thieno[3,2-b]pyridin-2-yl)pyridino-yl)methyl)piperidine-3-carboxylate]
